B1: modified rFnBD-D: rFnBD-D chemically modified with EDC (protein)
chain: GQNSGNQSFEEDTEEDKPKYEQGGNIVDIDFDSVPQIHGQNKGNQSFEEDTEKDKPKYEHGGNIIDIDFDSVPHIHGFNKHTEIIEEDTNKDKPSYQFGGHNSVDFEEDTLPKVSGQNEGQQTIEEDTTPPIVP
modifications: left off: small tags and cut ends
notes: rFnBD-D chemically modified with EDC
B2: native rFnBD-D: recombinant version of the S. aureus Fn-binding MSCRAMM repeat domain (protein)
chain: B1 chain
modifications: left off: small tags and cut ends

Tested on: S. aureus
Assay: not given
Conditions: McGavin et al., 1991; cited from earlier work
For QFGGHNSVDFEEDT [D320-33], the “inhibition of binding of Fn to S. aureus / Fn-binding function” value is given as “could not inhibit binding of Fn to S. aureus”.

Tested on: S. aureus strain Cowan binding to immobilized fibronectin
Assay: Inhibition of biotinylated S. aureus binding to immobilized fibronectin by synthetic peptides (ELISA)
Format: cell-based, Staphylococcus aureus
Conditions: 250 μg peptide (FIG. 3B)
Method: FIG. 2A, FIG. 2B and FIG. 2C. Inhibition of S. aureus binding to immobilized fibronectin by wild-type and mutant D3 peptides 1 through 21 (Table 3). NP indicates the amount of adherent bacteria in the absence of inhibitor. FIG. 2A. Peptides tested at 5 μg/well. FIG. 2B. Peptides tested at 50 μg/well. FIG. 2C. Peptides tested at 250 μg/well.
FIG. 3A and FIG. 3B. FIG. 3A. Inhibition of S. aureus binding to immobilized fibronectin by wild-type peptides D1 and D2 and mutant derivatives. NP indicates the amount of adherent bacteria in the absence of inhibitor. All peptides were tested at 10 μg/well. FIG. 3B. Inhibition of S. aureus binding to immobilized fibronectin by wild-type peptides D1. D2 and DU and mutant derivatives. NP indicates the amount of adherent bacteria in the absence of inhibitor. All peptides were tested at 250 μg/well.
S. aureus strain Cowan was cultured under constant rotation for 15 h at 37° C. in brain heart infusion (BHI; Difco) broth. Bacteria were harvested by centrifugation, resuspended in a bicarbonate buffer (50 mM NaHCO3, pH 8.5) to a final density of 10^10 cells/ml determined by comparing the absorbance at 600 nm of the sample with a previously prepared standard curve relating A600 to cells counted in a Petroff Hausser chamber. Bacterial cells were labeled with biotin by the addition of 100 μl of 1% NHS-biotin/ml of bacterial suspension (Pierce, Rockford, Ill.) in N,N-dimethylformamide. The staphylococcal cells were incubated with the NHS-biotin for 2 h at room temperature with constant rotation. The biotinylation reaction was stopped by removing the supernatant after centrifugation of the bacterial cells. The bacteria were then washed three times in PBS to remove unincorporated biotin. The bacterial cell suspensions were then adjusted to 1×10^10 cells/ml and the cells were stored at 4° C. in PBS, pH 7.4. To prevent unbiotinylated bacteria from growing and to reduce background, sodium azide and 0.1% BSA were added.
A series of peptides, based on the D3 repeat of S. aureus FnBPA, were synthesized to contain a proline residue at each position throughout the entire sequence (i.e., proline scan; Table 3). The mutated peptides were initially tested for their ability to inhibit biotinylated S. aureus binding to immobilized fibronectin. Wells on a 96-well Immulon II plate were coated with […] of a 30 μg/ml solution of purified Fn, either for 2 hr at room temperature or overnight at 4° C. Wells were washed three times with 1× phosphate buffered saline (PBS)-0.05% Tween-80 and blocked for 1 hr with PBS containing 0.01% Tween-80 and 1% BSA. After 1 hr, wells were washed again with PBS containing 0.05% Tween-80. Synthetic peptides were diluted to 5 mg/ml concentration in 1×PBS and tested at a concentration of 5 (FIG. 2A), 50 (FIG. 2B), or 250 μg/well (FIG. 2C). A volume of […] of the synthetic peptide was added to each well, after 15–25 min, followed by […] of biotinylated S. aureus cells. The plates were incubated for one hour at room temperature with slight agitation on a shaker. After 1 hr the wells were washed with PBS-0.05% Tween-80 and then incubated 30 min in 1:5000 dilution of secondary antibody streptavidin alkaline phosphatase. After 30 min, wells were washed again and developed with diethanolamine containing p-nitrophenyl phosphate (PNPP; 1 mg/ml) for 30 min at room temperature. The reaction was monitored at 405 nm.
For “QNKGNQSFEEDTEKDKPKYEHPGNIIDIDFDSVPHIHG [D2–22P]”, the “inhibitory activity compared to the wild type peptides” value was “virtually no inhibitory activity”. For “ADVVEYEEDTNPPGGQVTTESNLVEFDEEST [DU-13P]”, the “inhibitory activity compared to the wild type peptides” value was “virtually no inhibitory activity”. With “ADVVEYEEDTNPGPGQVTTESNLVEFDEEST [DU-14P]” the “inhibitory activity compared to the wild type peptides” value was “inhibitory activity was detected”. In the case of “QNSGNQSFEEDTEEDKPKYEQPGNIVDIDFDSVPQIHG [D1–22P]”, the “inhibitory activity compared to the wild type peptides” value is reported as “inhibitory activity was detected”.

Same assay, conditions: FIG. 2C, peptides at 250 μg/well; proline scan of D3
For KPPYQFGGHNSVDFEEDTLPK [compound 3], the “ability of mutant D3 peptides to inhibit S. aureus binding to Fn” value (shortened to “ability … to inhibit S. aureus binding to Fn”) was “inhibitory activity of peptides increased”. For PPSYQFGGHNSVDFEEDTLPK [compound 1], the “ability … to inhibit S. aureus binding to Fn” value was “inhibitory activity of peptides increased”. For KPSYQFGGHNSVDFEEDPLPK [compound 18], the “ability … to inhibit S. aureus binding to Fn” value was “enhanced S. aureus Fn binding ability”. With KPSYQFGGHNSVDFEEDTPPK [compound 19] the “ability … to inhibit S. aureus binding to Fn” value was “enhanced S. aureus Fn binding ability”. In the case of KPSYQFGGHNSVDFEEPTLPK [compound 17], the “ability … to inhibit S. aureus binding to Fn” value is reported as “enhanced S. aureus Fn binding ability”. With KPSYQFGGHNPVDFEEDTLPK [compound 11] the “ability … to inhibit S. aureus binding to Fn” value was “inhibitory activity of peptides increased”. With KPSPQFGGHNSVDFEEDTLPK [compound 4] the “ability … to inhibit S. aureus binding to Fn” value was “decreased ability to inhibit S. aureus binding to Fn”. In the case of KPSYQFGPHNSVDFEEDTLPK [compound 8], the “ability … to inhibit S. aureus binding to Fn” value is reported as “inhibitory activity of peptides increased”. In the case of KASYQFGGHNSVDFEEDTLPK [compound 2], the “ability … to inhibit S. aureus binding to Fn” value is reported as “inhibitory activity of peptides increased”. For KPSYQFGGHNSVDFEPDTLPK [compound 16], the “ability … to inhibit S. aureus binding to Fn” value was “enhanced S. aureus Fn binding ability”. With KPSYQFPGHNSVDFEEDTLPK [compound 7] the “ability … to inhibit S. aureus binding to Fn” value was “decreased ability to inhibit S. aureus binding to Fn”. In the case of KPSYQFGGHNSVDFEEDTLPP [compound 21], the “ability … to inhibit S. aureus binding to Fn” value is reported as “enhanced S. aureus Fn binding ability”.

Same assay, conditions: low concentration, 10 μg peptide (FIG. 3A)
For “QNKGNQSFEEDTEKDKPKYEHPGNIIDIDFDSVPHIHG [D2–22P]”, the “inhibitory activity compared with control samples (no peptide)” value was “no inhibitory activity”. In the case of “QNSGNQSFEEDTEEDKPKYEQPGNIVDIDFDSVPQIHG [D1–22P]”, the “inhibitory activity compared with control samples (no peptide)” value is reported as “no inhibitory activity”.

Tested on: S. aureus
Assay: Inhibition of Fn binding to S. aureus (rFnBD-D, EDC-modified rFnBD-D, immune IgG)
Format: cell-based, Staphylococcus aureus
Conditions: not given
Excerpt: Based on this observation, the inventors hypothesized that only Fn-binding MSCRAMMs that lack binding activity should lead to blocking antibodies. A recombinant version of the Fn-binding MSCRAMM rFnBD-D was chemically modified with EDC as previously described (McGavin et al., 1991) and tested for its ability to inhibit Fn binding to S. aureus. […] The chemically modified rFnBD-D was then used to immunize rabbits. […] With efficiencies of approximately 98%, chemical modification had the advantage of providing a quick and efficient method for probing entire classes of amino acids. However, an inherent disadvantage in this global approach is that the contribution to binding of individual amino acids was not detected.
For B1, the “inhibition of Fn binding to S. aureus” value was “no inhibitory activity”. With B2 the “inhibition of Fn binding to S. aureus” value was “inhibited Fn binding to S. aureus in a dose-dependent manner”.
